Molecules are shown by their SMILES. Like-named read-outs stand apart in the source and are kept apart here.

Data set [1] deals with U373 (glioblastoma-astrocytoma). Put plainly: CIMA assay, cell viability, U373. To be noted: for Fold change in viability AVG / In vitro activity against cancer cell lines, U373 AVG: U373.
For data set [2], the system named is A549 (lung carcinoma). Put plainly: CIMA assay (colorimetric indicator of metabolic activity), cell viability, A549. To be noted: for Fold change in viability AVG / In vitro activity against cancer cell lines, A549 AVG: A549.
Experimental: (§1) Stock solutions of the extracts were prepared in dimethylsulfoxide (DMSO) at 10 mg/mL and stored in 200 μl aliquots at −20° C. until analysis. This preparation ensured that the DMSO delivered to cells in culture never exceeded 1%.
(§2) Prepared extracts were assessed following chronic exposure conditions in which cells were seeded at 2×10^3 cells/well (96 well-plate) and incubated with test compounds for 72 h. Each compound was evaluated over a range of concentrations (0, 10, 25, 50 or 100 μg/ml). Cell proliferation was initially assessed using a standard colorimetric indicator of metabolic activity (CIMA) assay. In this assay, tetrazole reduction was evaluated as a measure of metabolic function that evaluates mitochondrial activity to determine the extent of cell proliferation within a culture. This assay is based on the reduction of yellow tetrazolium salt to purple formazan by mitochondrial reductases enzyme in viable cells, resulting in a color changed that confers a change in absorbance.
For data set [3], the system named is MDA-MB. The conditions noted are these: MDA-MB.
Data set [4] has as its system SKOV3 (ovarian adenocarcinoma). Put plainly: CIMA assay, cell viability, SKOV3. The conditions noted are these: for Fold change in viability AVG / In vitro activity against cancer cell lines, SKOV AVG: SKOV.
The subject of data set [5] is PC3. The experiment in a line: CIMA assay, cell viability, PC3. To be noted: for Fold change in viability AVG / In vitro activity against cancer cell lines, PC3 AVG: PC3.
For data set [6], the system named is MDA-MB. The experiment in a line: cells. To be noted: Homo sapiens, read-out: Average cell viability, MDA-MB; for viability at 100 µg/mL: 100 ug/mL.
Data set [7] in a line: CIMA assay, cell viability, CCD1079SK. To be noted: human, CCD1079SK fibroblasts (noncancerous, proliferating), Average cell viability, CCD.
In data set [8] the test system is CCD1079SK (fibroblast, noncancerous but proliferating). The experiment in a line: CIMA assay, cell viability, CCD1079SK. The conditions noted are these: CCD.
The test system of data set [9] is THP-1 (acute monocytic leukemia). Put plainly: CIMA assay, cell viability, THP-1. The conditions noted are these: for Fold change in viability AVG / In vitro activity against cancer cell lines, THP-1 AVG: THP-1.
Experimental: as §1, §2
The mark [10] stands for this setting: Homo sapiens, U373 MG, read-out: Average cell viability, U373, 100 ug/mL.
Where [11] appears, read: Homo sapiens, A549, read-out: Average cell viability, A549, 100 ug/mL.
Setting [12] is: Homo sapiens, SK-OV-3, read-out: Average cell viability, SKOV, 100 ug/mL.
The mark [13] stands for this setting: Homo sapiens, PC-3, read-out: Average cell viability, PC3, 100 ug/mL.
[14] abbreviates: Homo sapiens, THP-1, read-out: Average cell viability, THP-1, 100 ug/mL.

Broadly, the viability is a read-out of living cells in per cent, often relative to untreated cells. With `CCCCCC(O)/C=C/C=C/CCCCCCCC(=O)O` (stereo not drawn) [77-31-34-6 A, 13-hydroxyoctadeca-9E,11E-dienoic acid], the viability at 100 µg/mL in data set [1] (setting [10]) was 4%; in data set [2] (setting [11]), 7%; in data set [4] (setting [12]), 53%; in [5] (setting [13]), 5%; in [6] it was 12%; in data set [9] (setting [14]) it was 6%. Further, the “Fold change in viability AVG” value came to 0.04 in data set [1] (1.00 ug/mL (so in the source)); 0.08 in data set [2] (1.00 ug/mL (so in the source)); 0.13 in [3] (1.00 ug/mL (so in the source)); 0.57 in data set [4] (1.00 ug/mL (so in the source)); 0.05 in [5] (1.00 ug/mL (so in the source)); 0.14 in data set [8] (1.00 ug/mL (so in the source)). For the same compound, the “Fold change in viability AVG” value in data set [9] (1.00 ug/mL (so in the source)) is listed as 0.07. Moreover, in data set [1] (100 ug/mL), the “In vitro activity against cancer cell lines, U373 AVG” value (“In vitro activity … U373 AVG” for short) is given as 0.04. Besides, the “In vitro activity against cancer cell lines, A549 AVG” value (shortened to “In vitro activity … A549 AVG”) in [2] (100 ug/mL) worked out at 0.08. Further, the “In vitro activity against cancer cell lines, MDA-MB AVG” value (“In vitro activity … MDA-MB AVG” below) in data set [3] (100 ug/mL) was found to be 0.13. Also, the “In vitro activity against cancer cell lines, SKOV AVG” value (“In vitro activity … SKOV AVG” below) in data set [4] (100 ug/mL) was 0.57. In [5] (100 ug/mL), the “In vitro activity against cancer cell lines, PC3 AVG” value (from here on “In vitro activity … PC3 AVG”) was determined as 0.05. Further, the viability at 72 h, 100 ug/mL in data set [7] is 13%. In addition, the “In vitro activity against cancer cell lines, THP-1 AVG” value (from here on “In vitro activity … THP-1 AVG”) in data set [9] (100 ug/mL) turned out to be 0.07.

Consider `CCCCCCCCCCCCCCCC(=O)OCC(O)CO` (stereo not drawn) [77-38-41-1 B, MAG (C16:0)], for which the viability at 50 µg/mL was 13% in data set [1] (Homo sapiens, U373 MG, read-out: Average cell viability, U373, 50 ug/mL); 69% in [2] (Homo sapiens, A549, read-out: Average cell viability, A549, 50 ug/mL); 52% in data set [4] (Homo sapiens, SK-OV-3, read-out: Average cell viability, SKOV, 50 ug/mL); 52% in [5] (Homo sapiens, PC-3, read-out: Average cell viability, PC3, 50 ug/mL); 64% in data set [6] (50 ug/mL); 96% in data set [9] (Homo sapiens, THP-1, read-out: Average cell viability, THP-1, 50 ug/mL). For the same compound, the viability at 100 µg/mL amounted to 7% in [1] (setting [10]); 26% in [2] (setting [11]); 22% in data set [4] (setting [12]); 15% in [5] (setting [13]); 28% in [6]; 105% in data set [9] (setting [14]). Also, the “Fold change in viability AVG” value is on record as 0.13 in data set [1] (50 ug/mL); 0.07 in data set [1] (100 ug/mL); 0.81 in [2] (50 ug/mL); 0.30 in data set [2] (100 ug/mL); 0.70 in [3] (50 ug/mL); 0.30 in [3] (100 ug/mL). Moreover, the “Fold change in viability AVG” value in data set [4] (50 ug/mL) worked out at 0.56; in [4] (100 ug/mL), 0.24; in [5] (50 ug/mL), 0.54; in [5] (100 ug/mL), 0.16; in data set [8] (50 ug/mL), 0.85; in data set [8] (100 ug/mL) it was 0.79. The entries for the “Fold change in viability AVG” value in [9] (50 ug/mL) and in data set [9] (100 ug/mL) were 1.10 and 1.19, respectively. Moreover, the “In vitro activity … U373 AVG” value in data set [1] (50 ug/mL) was found to be 0.13; in data set [1] (100 ug/mL), 0.07. Also, the “In vitro activity … A549 AVG” value in [2] (50 ug/mL) stood at 0.81; in [2] (100 ug/mL), 0.30. The “In vitro activity … MDA-MB AVG” value in [3] (50 ug/mL) was determined as 0.70; in data set [3] (100 ug/mL), 0.30. The “In vitro activity … SKOV AVG” value in data set [4] (50 ug/mL) came out at 0.56; in data set [4] (100 ug/mL) it was 0.24. In addition, the results for the “In vitro activity … PC3 AVG” value in data set [5] (50 ug/mL) and in [5] (100 ug/mL) were 0.54 and 0.16, respectively. In addition, in data set [7] (50 ug/mL), the viability at 72 h, 50 ug/mL was 78%. For the same compound, the viability at 72 h, 100 ug/mL in [7] was found to be 72%. Also, the results for the “In vitro activity … THP-1 AVG” value in data set [9] (50 ug/mL) and in [9] (100 ug/mL) were 1.10 and 1.19, respectively.

On to `CCCCCCCCCCCCOS(=O)(=O)[O-].[Na+]` [cont-SDS], for which the “In vitro activity … U373 AVG” value in data set [1] (250 ug/ml) is listed as 0.05. The “In vitro activity … A549 AVG” value in data set [2] (250 ug/ml) is on record as 0.13. Moreover, the “In vitro activity … MDA-MB AVG” value in data set [3] (250 ug/ml) amounted to 0.16. Besides, the “In vitro activity … SKOV AVG” value in data set [4] (250 ug/ml) is reported as 0.10. The “In vitro activity … PC3 AVG” value in data set [5] (250 ug/ml) is listed as 0.08. Besides, the “In vitro activity … THP-1 AVG” value in data set [9] (250 ug/ml) was determined as 0.18.

For the origin of these results see patent US11292807B2 (OCEANS LTD., priority 2015, dated 2022).
